The results in this text go back to ChEMBL document CHEMBL4665718, “Inhibitory effect of oolonghomobisflavan B on osteoclastogenesis by suppressing p38 MAPK activation” (Bioorg Med Chem Lett, 2020).

The source made the active and inactive calls. The calls are words filed in the database; no cut-off is given here.

The test system of data set [1] is BMDM. Nature of the data set: Inhibition of p38 MAPK in BMM (unknown origin) assessed as suppression of RANKL/M-CSF-induced MMP9 gene upregulation at 5 uM measured after 3 days by RT-PCR analysis. It counts as tissue-based. The following applies: time 3.0 day.
Data set [2] has as its system BMDM. Nature of the data set: Inhibition of p38 MAPK in BMM (unknown origin) assessed as suppression of RANKL/M-CSF-induced CTSK gene upregulation at 5 uM measured after 3 days by RT-PCR analysis. The note with it: time 3.0 day. It counts as tissue-based.
The subject of data set [3] is BMDM. Nature of the data set: Inhibition of M-CSF-induced Akt activation in BMM (unknown origin) at 5 uM pretreated for 1 hr followed by M-CSF stimulation for 5 to 30 mins by Western blot analysis. It counts as tissue-based.
The subject of data set [4] is BMDM. The data set can be described thus: Inhibition of p38 MAPK in BMM (unknown origin) assessed as suppression of RANKL/M-CSF-induced Acp5 gene upregulation at 5 uM measured after 3 days by RT-PCR analysis. It counts as tissue-based. The following applies: time 3.0 day.
Data set [5] has as its system BMDM. The data set can be described thus: Inhibition of RANKL-induced ERK activation in BMM (unknown origin) at 5 uM pretreated for 1 hr followed by RANKL stimulation for 5 to 15 mins by Western blot analysis. In kind it is tissue-based.
For data set [6], the system named is BMDM. The data set can be described thus: Inhibition of p38 MAPK in BMM (unknown origin) assessed as suppression of RANKL/M-CSF-induced Nftac1 upregulation at 5 uM measured after 3 days by Western blot analysis. In kind it is tissue-based. The note with it: time 3.0 day.
Data set [7] has as its system BMDM. Nature of the data set: Inhibition of p38 MAPK in BMM (unknown origin) assessed as suppression of RANKL/M-CSF-induced Nftac1 gene upregulation at 5 uM measured after 3 days by RT-PCR analysis. The following applies: time 3.0 day. In kind it is tissue-based.
The subject of data set [8] is BMDM. Nature of the data set: Inhibition of RANKL-induced Akt activation in BMM (unknown origin) at 5 uM pretreated for 1 hr followed by RANKL stimulation for 5 to 15 mins by Western blot analysis. It counts as tissue-based.
Data set [9] deals with BMDM. The data set can be described thus: Inhibition of p38 MAPK in BMM (unknown origin) assessed as suppression of RANKL/M-CSF-induced DCSTAMP gene upregulation at 5 uM measured after 3 days by RT-PCR analysis. It counts as tissue-based. The note with it: time 3.0 day.
The test system of data set [10] is BMDM. The data set can be described thus: Inhibition of p38 MAPK in BMM (unknown origin) assessed as inhibition of RANKL/M-CSF-induced osteoclast differentiation by measuring reduction in TRAP-positive multinucleated cells at 5 uM treated on day 2-4 by TRAP staining based assay relative to control. The following applies: time 3.0 day.
Data set [11] relates to BMDM. Nature of the data set: Inhibition of p38 MAPK in BMM (unknown origin) assessed as suppression of RANKL/M-CSF-induced CTSK upregulation at 5 uM measured after 3 days by Western blot analysis. It counts as tissue-based. The note with it: time 3.0 day.
Data set [12] relates to BMDM. The data set can be described thus: Inhibition of p38 MAPK in BMM (unknown origin) assessed as inhibition of RANKL/M-CSF-induced osteoclast differentiation by measuring reduction in TRAP-positive multinucleated cells at 5 uM treated on day 0-2 by TRAP staining based assay relative to control. The following applies: time 2.0 day. It counts as tissue-based.
The test system of data set [13] is BMDM. The data set can be described thus: Inhibition of M-CSF-induced ERK activation in BMM (unknown origin) at 5 uM pretreated for 1 hr followed by M-CSF stimulation for 5 to 30 mins by Western blot analysis. In kind it is tissue-based.
In data set [14] the test system is BMDM. Nature of the data set: Inhibition of p38 MAPK in BMM (unknown origin) assessed as inhibition of RANKL/M-CSF-induced osteoclast differentiation by measuring reduction in TRAP-positive multinucleated cells at 5 uM treated on day 0-4 by TRAP staining based assay. The following applies: time 4.0 day.
In data set [15] the test system is BMDM. The data set can be described thus: Inhibition of p38 MAPK in BMM (unknown origin) assessed as suppression of RANKL/M-CSF-induced actin ring formation at 5 uM incubated for 4 days by rhodamine phallodin/DAPI staining based analysis. The following applies: time 4.0 day.
Data set [16] addresses T1, NF-kappa-B inhibitor alpha (Homo sapiens) (UniProt P25963).
T1 sequence (whole entry): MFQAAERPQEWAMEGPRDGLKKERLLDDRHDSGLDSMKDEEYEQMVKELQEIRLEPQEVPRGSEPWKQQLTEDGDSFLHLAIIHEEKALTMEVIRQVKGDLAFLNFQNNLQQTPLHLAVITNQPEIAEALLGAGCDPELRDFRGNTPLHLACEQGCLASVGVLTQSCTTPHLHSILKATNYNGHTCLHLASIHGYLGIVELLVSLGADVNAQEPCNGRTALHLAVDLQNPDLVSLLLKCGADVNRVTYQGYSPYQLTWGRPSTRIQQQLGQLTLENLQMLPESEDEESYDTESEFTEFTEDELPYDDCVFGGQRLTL
Nature of the data set: Inhibition of RANKL-induced IkappaB-alpha activation in BMM (unknown origin) at 5 uM pretreated for 1 hr followed by RANKL stimulation for 5 to 15 mins by Western blot analysis. In kind it is tissue-based.

Data set [17] relates to BMDM. Nature of the data set: Inhibition of p38 MAPK in BMM (unknown origin) assessed as inhibition of M-CSF/RANKL-induced osteoclastogenesis by measuring reduction in multinucleated TRAP+ cells measured after 4 days by TRAP-staining based analysis. It counts as cell-based. The following applies: dose microM 1-5, time 4.0 day.
Data set [18] deals with BMDM. Nature of the data set: Inhibition of RANKL-induced JNK activation in BMM (unknown origin) at 5 uM pretreated for 1 hr followed by RANKL stimulation for 5 to 15 mins by Western blot analysis. In kind it is tissue-based.
Data set [19] in a line: Cytotoxicity against BMM (unknown origin) assessed as reduction in cell viability at 5 uM after 3 days in presence of M-CSF by MTT assay. In kind it is tissue-based. The following applies: bmdm, 72 h, time 3 day.
For data set [20], the system named is BMDM. Nature of the data set: Inhibition of RANKL-induced p38 activation in BMM (unknown origin) at 5 uM pretreated for 1 hr followed by RANKL stimulation for 5 to 15 mins by Western blot analysis. In kind it is tissue-based.
In data set [21] the test system is BMDM. The data set can be described thus: Inhibition of p38 MAPK in BMM (unknown origin) assessed as inhibition of M-CSF/RANKL-induced osteoclastogenesis by measuring reduction in multinucleated TRAP+ cells at 5 uM measured after 4 days by TRAP-staining based analysis relative to control. In kind it is cell-based. The following applies: time 4.0 day.
Data set [22] deals with BMDM. The data set can be described thus: Modulation of NF-kappaB in Sprague-Dawley rat BMM assessed as inhibition of M-CSF/RANKL-induced osteoclast differentiation by measuring decrease in TRAP-positive multinucleated cells at 100 uM measured after 5 days by TRAP-staining based assay relative to control. It counts as tissue-based. The note with it: filed as modulator, time 5.0 day.

On to `O=C(O[C@@H]1Cc2c(cc(O)c(Cc3c(O)cc(O)c4c3O[C@H](c3cc(O)c(O)c(O)c3)[C@H](OC(=O)c3cc(O)c(O)c(O)c3)C4)c2O)O[C@@H]1c1cc(O)c(O)c(O)c1)c1cc(O)c(O)c(O)c1`, for which the inhibition entry in the data set with BMDM [1], with BMDM [2], in the data set on BMDM [4], in the data set on BMDM [6], with BMDM [7] and in the data set with BMDM [9] was “Active” each time. Besides, the inhibition result in the data set on BMDM [11], in the data set on BMDM [14], with BMDM [15] and in the data set with BMDM [20] was “Active” each time. Besides, the inhibition entry (in the data set with BMDM [3]; in the data set on BMDM [5]; in the data set on BMDM [8]; with BMDM [13]; in data set [16]; with BMDM [18]) was “inactive” each time. Further, the inhibition in the data set with BMDM [10] was 34.5%; in the data set with BMDM [12] it was 95.9%; in the data set with BMDM [17], “Dose-dependent effect”; with BMDM [21], 98.1%. The Activity entry in [19] is “Non-Toxic”.

Consider `O=C(O[C@@H]1Cc2c(O)cc(O)cc2O[C@@H]1c1cc(O)c(O)c(O)c1)c1cc(O)c(O)c(O)c1`, for which the inhibition with BMDM [22] worked out at 92%.
